Experimental data taken from publication PMC5218480 (PLoS ONE, 2017).

Test system: MV-4-11 cells
Test: Gene expression microarray analysis (Affymetrix PrimeView) and GSEA
Assay type: cell-based, human
Design: RFU PODN (11730768_x_at) / Fold change /veh PODN (11730768_x_at) / RFU LINC00158 (11744669_a_at) / Fold change /veh LINC00158 (11744669_a_at) / RFU DUSP10 (11751237_a_at) / Fold change /veh DUSP10 (11751237_a_at) / RFU ID3 (11757404_x_at) / Fold change /veh ID3 (11757404_x_at) / RFU PLEKHG5 (11737974_s_at) / Fold change /veh PLEKHG5 (11737974_s_at) / RFU LRRC4B (11730491_at) / Fold change /veh LRRC4B (11730491_at) / RFU GIMAP4 (11747438_a_at) / Fold change /veh GIMAP4 (11747438_a_at) / RFU KRT8 (11758183_x_at) / Fold change /veh KRT8 (11758183_x_at) / RFU CNN1 (11734310_a_at) / Fold change /veh CNN1 (11734310_a_at) / RFU VPS37D (11726825_at) / Fold change /veh VPS37D (11726825_at) / RFU C10orf10 (11716522_x_at) / Fold change /veh C10orf10 (11716522_x_at) / RFU KIR2DL2 /// KIR2DL4 /// KIR2DL5A /// KIR2DL5B /// KIR2DS1 /// KIR2DS2 /// KIR2DS3 /// KIR2DS4 /// KIR3DL3 /// KIR3DL3 /// KIR3DS1 (11738374_at) / Fold change /veh KIR2DL2 /// KIR2DL4 /// KIR2DL5A /// KIR2DL5B /// KIR2DS1 /// KIR2DS2 /// KIR2DS3 /// KIR2DS4 /// KIR3DL3 /// KIR3DL3 /// KIR3DS1 (11738374_at) / RFU C1QL1 (11718748_at) / Fold change /veh C1QL1 (11718748_at) / RFU TMPRSS4 (11747572_a_at) / Fold change /veh TMPRSS4 (11747572_a_at) / RFU HAMP (11756126_x_at) / Fold change /veh HAMP (11756126_x_at) / RFU RNFT2 (11725882_a_at) / Fold change /veh RNFT2 (11725882_a_at) / RFU NR4A2 (11747474_a_at) / Fold change /veh NR4A2 (11747474_a_at) / RFU ABCC12 (11746883_a_at) / Fold change /veh ABCC12 (11746883_a_at) / RFU TMEM136 (11760407_x_at) / Fold change /veh TMEM136 (11760407_x_at) / RFU CLDN22 /// WWC2 (11732394_at) / Fold change /veh CLDN22 /// WWC2 (11732394_at) / RFU HLA-DPB1 (11760878_x_at) / Fold change /veh HLA-DPB1 (11760878_x_at) / RFU SPINT1 (11716480_a_at) / Fold change /veh SPINT1 (11716480_a_at) / RFU GAP43 (11754022_s_at) / Fold change /veh GAP43 (11754022_s_at) / RFU A4GNT (11735810_at) / Fold change /veh A4GNT (11735810_at) / RFU PRB3 (11715151_x_at) / Fold change /veh PRB3 (11715151_x_at) / RFU TUBB4B (11761932_at) / Fold change /veh TUBB4B (11761932_at) / RFU CAPN14 (11732068_a_at) / Fold change /veh CAPN14 (11732068_a_at) / RFU TMCC2 (11721928_a_at) / Fold change /veh TMCC2 (11721928_a_at) / RFU IRGQ (11745062_a_at) / Fold change /veh IRGQ (11745062_a_at) / RFU FAM174B (11720279_a_at) / Fold change /veh FAM174B (11720279_a_at) / RFU TMPRSS4 (11748680_a_at) / Fold change /veh TMPRSS4 (11748680_a_at) / RFU FAM212B (11763350_a_at) / Fold change /veh FAM212B (11763350_a_at) / RFU PLEKHG5 (11743358_a_at) / Fold change /veh PLEKHG5 (11743358_a_at) / RFU ZSCAN30 (11745921_a_at) / Fold change /veh ZSCAN30 (11745921_a_at) / RFU CMKLR1 (11741424_a_at) / Fold change /veh CMKLR1 (11741424_a_at) / RFU LOC101060620 /// MAPK8IP1 (11723275_at) / Fold change /veh LOC101060620 /// MAPK8IP1 (11723275_at) / RFU SPTSSB (11747773_x_at) / Fold change /veh SPTSSB (11747773_x_at) / RFU PRSS12 (11739890_at) / Fold change /veh PRSS12 (11739890_at) / RFU BIN1 (11741810_x_at) / Fold change /veh BIN1 (11741810_x_at) / RFU WNT11 (11732464_a_at) / Fold change /veh WNT11 (11732464_a_at) / RFU C10orf10 (11716521_a_at) / Fold change /veh C10orf10 (11716521_a_at) / RFU C5orf56 (11738089_at) / Fold change /veh C5orf56 (11738089_at) / RFU CYB561 (11721691_x_at) / Fold change /veh CYB561 (11721691_x_at) / RFU ANKRD19P (11752326_a_at) / Fold change /veh ANKRD19P (11752326_a_at) / RFU OR2T12 /// OR2T33 /// OR2T8 (11738714_s_at) / Fold change /veh OR2T12 /// OR2T33 /// OR2T8 (11738714_s_at) / RFU VCAN (11748164_a_at) / Fold change /veh VCAN (11748164_a_at) / RFU JSRP1 (11732532_at) / Fold change /veh JSRP1 (11732532_at) / RFU KRTAP10-11 (11738290_x_at) / Fold change /veh KRTAP10-11 (11738290_x_at) / RFU MYO3A (11730013_a_at) / Fold change /veh MYO3A (11730013_a_at) / RFU EBF3 (11725865_a_at) / Fold change /veh EBF3 (11725865_a_at) / RFU CAMK2N1 (11719241_x_at) / Fold change /veh CAMK2N1 (11719241_x_at) / RFU C5orf56 (11738088_a_at) / Fold change /veh C5orf56 (11738088_a_at) / RFU OLFML3 (11715873_a_at) / Fold change /veh OLFML3 (11715873_a_at) / RFU LOC100653217 /// NTM (11731650_a_at) / Fold change /veh LOC100653217 /// NTM (11731650_a_at) / RFU MAPK11 (11762145_a_at) / Fold change /veh MAPK11 (11762145_a_at) / RFU FIZ1 (11724087_x_at) / Fold change /veh FIZ1 (11724087_x_at) / RFU OASL (11726364_x_at) / Fold change /veh OASL (11726364_x_at) / RFU SOX15 (11748057_x_at) / Fold change /veh SOX15 (11748057_x_at) / RFU CD79A (11719716_a_at) / Fold change /veh CD79A (11719716_a_at) / RFU HIST1H1D (11736915_at) / Fold change /veh HIST1H1D (11736915_at) / RFU CASKIN2 (11723855_a_at) / Fold change /veh CASKIN2 (11723855_a_at) / RFU LOC730098 (11760151_x_at) / Fold change /veh LOC730098 (11760151_x_at) / RFU OR4N2 (11742367_at) / Fold change /veh OR4N2 (11742367_at) / RFU PRRT2 (11749266_a_at) / Fold change /veh PRRT2 (11749266_a_at) / RFU SNX32 (11753110_a_at) / Fold change /veh SNX32 (11753110_a_at) / RFU CDHR5 (11726645_a_at) / Fold change /veh CDHR5 (11726645_a_at) / RFU RCAN1 (11760418_a_at) / Fold change /veh RCAN1 (11760418_a_at) / RFU FAM167A (11723789_a_at) / Fold change /veh FAM167A (11723789_a_at) / RFU FAM26E (11764081_at) / Fold change /veh FAM26E (11764081_at) / RFU ISYNA1 (11749810_s_at) / Fold change /veh ISYNA1 (11749810_s_at) / RFU ACY1 (11761880_at) / Fold change /veh ACY1 (11761880_at) / RFU 11764098_at / Fold change /veh 11764098_at / RFU SAMD14 (11745864_x_at) / Fold change /veh SAMD14 (11745864_x_at) / RFU NPB (11741838_a_at) / Fold change /veh NPB (11741838_a_at) / RFU TMPRSS6 (11731388_a_at) / Fold change /veh TMPRSS6 (11731388_a_at) / RFU KRTAP10-2 (11738614_at) / Fold change /veh KRTAP10-2 (11738614_at) / RFU ARHGAP8 /// PRR5-ARHGAP8 (11727945_x_at) / Fold change /veh ARHGAP8 /// PRR5-ARHGAP8 (11727945_x_at) / RFU KRTAP5-7 /// NADSYN1 (11734609_at) / Fold change /veh KRTAP5-7 /// NADSYN1 (11734609_at) / RFU RASL12 (11751679_a_at) / Fold change /veh RASL12 (11751679_a_at) / RFU CDKN2B (11736163_a_at) / Fold change /veh CDKN2B (11736163_a_at) / RFU PRF1 (11729649_at) / Fold change /veh PRF1 (11729649_at) / RFU, ZNF638 /// ZNF638-IT1 / Fold change vs veh, ZNF638 /// ZNF638-IT1 / RFU, PANK3 / Fold change vs veh, PANK3 / RFU, SH3YL1 / Fold change vs veh, SH3YL1 / RFU, ZEB2 / Fold change vs veh, ZEB2 / RFU, NRIP1 / Fold change vs veh, NRIP1 / RFU, PTTG1IP / Fold change vs veh, PTTG1IP / RFU, CAPN2 / Fold change vs veh, CAPN2 / RFU, MED14 / Fold change vs veh, MED14 / RFU, SNORA58 / Fold change vs veh, SNORA58 / RFU, C1orf63 / Fold change vs veh, C1orf63 / RFU, LRRFIP1 / Fold change vs veh, LRRFIP1 / RFU, NDUFAF7 / Fold change vs veh, NDUFAF7 / RFU, SLC12A2 / Fold change vs veh, SLC12A2 / RFU, IBTK / Fold change vs veh, IBTK / RFU, ESF1 / Fold change vs veh, ESF1 / Fold change vs veh, TMEM50B / RFU, TAOK1 / Fold change vs veh, TAOK1 / RFU, ACBD3 / Fold change vs veh, ACBD3 / RFU, TMA16 / Fold change vs veh, TMA16 / RFU, RWDD3 / Fold change vs veh, RWDD3 / RFU, BCAT1 / Fold change vs veh, BCAT1 / RFU, EDEM3 / Fold change vs veh, EDEM3 / RFU, TMEM33 / Fold change vs veh, TMEM33 / RFU, WDR75 / Fold change vs veh, WDR75 / RFU, AHCTF1 / Fold change vs veh, AHCTF1 / RFU, TFRC / Fold change vs veh, TFRC / RFU, ZDHHC17 / Fold change vs veh, ZDHHC17 / RFU, NOM1 / Fold change vs veh, NOM1 / RFU, ARL8B / Fold change vs veh, ARL8B / RFU, ZBTB11 / Fold change vs veh, ZBTB11 / RFU, TAMM41 / Fold change vs veh, TAMM41 / RFU, KIAA1704 /// LOC100996395 / Fold change vs veh, KIAA1704 /// LOC100996395 / RFU, ING1 / Fold change vs veh, ING1 / RFU, TRMT61B / Fold change vs veh, TRMT61B / RFU, FUBP3 / Fold change vs veh, FUBP3 / RFU, TP53 / Fold change vs veh, TP53 / RFU, TNKS2 / Fold change vs veh, TNKS2 / RFU, ZFP14 / Fold change vs veh, ZFP14 / RFU, ACTR2 / Fold change vs veh, ACTR2 / RFU, PPP3R1 / Fold change vs veh, PPP3R1 / RFU, PIK3R1 / Fold change vs veh, PIK3R1 / RFU, HNRNPA1 / Fold change vs veh, HNRNPA1 / RFU, RNF170 / Fold change vs veh, RNF170 / RFU, ZNF28 / Fold change vs veh, ZNF28 / RFU, RNGTT / Fold change vs veh, RNGTT / RFU, OGT / Fold change vs veh, OGT / RFU, BRD1 / Fold change vs veh, BRD1 / RFU, MARS / Fold change vs veh, MARS / RFU, ZNF655 / Fold change vs veh, ZNF655 / RFU, FAHD1 / Fold change vs veh, FAHD1 / RFU, BDP1 / Fold change vs veh, BDP1 / RFU, LRRCC1 / Fold change vs veh, LRRCC1 / RFU, ARID1A / Fold change vs veh, ARID1A / RFU, ZNF146 / Fold change vs veh, ZNF146 / RFU, ZNF330 / Fold change vs veh, ZNF330 / RFU, GPN3 / Fold change vs veh, GPN3 / RFU, C9orf123 / Fold change vs veh, C9orf123 / RFU, N4BP2L2 / Fold change vs veh, N4BP2L2 / RFU, ARFIP1 / Fold change vs veh, ARFIP1 / RFU, FAM179B / Fold change vs veh, FAM179B / RFU, BCL10 / Fold change vs veh, BCL10 / RFU, UHRF1BP1L / Fold change vs veh, UHRF1BP1L / RFU, BET1 / Fold change vs veh, BET1 / RFU, CNOT2 / Fold change vs veh, CNOT2 / RFU, ZNF268 / Fold change vs veh, ZNF268 / Fold change vs veh, ZNF507 / RFU, DGCR2 / Fold change vs veh, DGCR2 / RFU, WDSUB1 / Fold change vs veh, WDSUB1 / Fold change vs veh, HSP90B1 /// MIR3652 / RFU, ADSS / Fold change vs veh, ADSS / RFU, GK / Fold change vs veh, GK / RFU, ZNF148 / Fold change vs veh, ZNF148 / RFU, TAF9 / Fold change vs veh, TAF9 / RFU, SLC1A5 / Fold change vs veh, SLC1A5 / RFU, SLMO2 / Fold change vs veh, SLMO2 / RFU, ABCC4 / Fold change vs veh, ABCC4 / RFU, LOC101060439 /// RAP1B / Fold change vs veh, LOC101060439 /// RAP1B / RFU, RFX7 / Fold change vs veh, RFX7 / RFU, GTPBP10 / Fold change vs veh, GTPBP10 / RFU, CNEP1R1 / Fold change vs veh, CNEP1R1 / RFU, BIVM-ERCC5 /// ERCC5 / Fold change vs veh, BIVM-ERCC5 /// ERCC5 / RFU, ILF3 / Fold change vs veh, ILF3 / RFU 11762660_at / Fold change /veh 11762660_at / RFU VCAN (11757783_s_at) / Fold change /veh VCAN (11757783_s_at) / RFU DDX43 (11728927_at) / Fold change /veh DDX43 (11728927_at) / RFU KRT8 (11758188_x_at) / Fold change /veh KRT8 (11758188_x_at) / RFU NKD1 (11759106_at) / Fold change /veh NKD1 (11759106_at) / RFU SRD5A1 (11742802_a_at) / Fold change /veh SRD5A1 (11742802_a_at) / RFU TPSAB1 /// TPSB2 (11721975_s_at) / Fold change /veh TPSAB1 /// TPSB2 (11721975_s_at) / RFU GSTM3 (11746129_a_at) / Fold change /veh GSTM3 (11746129_a_at) / RFU IL23R (11737362_x_at) / Fold change /veh IL23R (11737362_x_at) / RFU TMEM51 (11727254_a_at) / Fold change /veh TMEM51 (11727254_a_at) / RFU PIWIL2 (11732686_x_at) / Fold change /veh PIWIL2 (11732686_x_at) / RFU ORM1 (11744905_x_at) / Fold change /veh ORM1 (11744905_x_at) / RFU CCDC152 (11743942_at) / Fold change /veh CCDC152 (11743942_at) / RFU ECM1 (11717891_a_at) / Fold change /veh ECM1 (11717891_a_at) / RFU IL23R (11748794_a_at) / Fold change /veh IL23R (11748794_a_at) / RFU TNFAIP8L3 (11732012_x_at) / Fold change /veh TNFAIP8L3 (11732012_x_at) / RFU MBOAT4 (11741988_at) / Fold change /veh MBOAT4 (11741988_at) / RFU 11764193_at / Fold change /veh 11764193_at / RFU TMEM53 (11763286_at) / Fold change /veh TMEM53 (11763286_at) / RFU MAGEB2 (11727129_at) / Fold change /veh MAGEB2 (11727129_at) / RFU TMEM200A (11744735_a_at) / Fold change /veh TMEM200A (11744735_a_at) / RFU CCDC152 (11751479_a_at) / Fold change /veh CCDC152 (11751479_a_at) / RFU FAM211A (11726209_a_at) / Fold change /veh FAM211A (11726209_a_at) / RFU RGS16 (11746705_a_at) / Fold change /veh RGS16 (11746705_a_at) / RFU VCAN (11755009_s_at) / Fold change /veh VCAN (11755009_s_at) / RFU RHOB (11743442_s_at) / Fold change /veh RHOB (11743442_s_at) / RFU RGS16 (11720943_a_at) / Fold change /veh RGS16 (11720943_a_at) / RFU RGS16 (11720944_at) / Fold change /veh RGS16 (11720944_at) / RFU, VPS4B / Fold change vs veh, VPS4B / RFU, CREB1 / Fold change vs veh, CREB1 / RFU, DNAJC13 / Fold change vs veh, DNAJC13 / RFU, GNAQ / Fold change vs veh, GNAQ / RFU, CDK5R1 / Fold change vs veh, CDK5R1 / RFU, ZRANB3 / Fold change vs veh, ZRANB3 / RFU, CUL4A / Fold change vs veh, CUL4A / RFU, CCNY / Fold change vs veh, CCNY / RFU, UFL1 / Fold change vs veh, UFL1 / RFU, COG3 / Fold change vs veh, COG3 / RFU, DIAPH2 / Fold change vs veh, DIAPH2 / RFU, SKA2 / Fold change vs veh, SKA2 / RFU, AFF3 / Fold change vs veh, AFF3 / RFU, LMF1 / Fold change vs veh, LMF1 / RFU, IPO11 / Fold change vs veh, IPO11 / RFU, DFFB / Fold change vs veh, DFFB / RFU, FOXP1 / Fold change vs veh, FOXP1 / RFU, CARD8 / Fold change vs veh, CARD8 / RFU, STRN3 / Fold change vs veh, STRN3 / RFU, ADK / Fold change vs veh, ADK / RFU, RASSF2 / Fold change vs veh, RASSF2 / RFU, WIPF1 / Fold change vs veh, WIPF1 / RFU, LARP1B / Fold change vs veh, LARP1B / RFU, RASA1 / Fold change vs veh, RASA1 / RFU, RB1 / Fold change vs veh, RB1 / RFU, PPFIA1 / Fold change vs veh, PPFIA1 / RFU, MAT2A / Fold change vs veh, MAT2A / RFU, CCT5 / Fold change vs veh, CCT5 / RFU, WDR92 / Fold change vs veh, WDR92 / RFU, CUX1 / Fold change vs veh, CUX1 / RFU, TTC7A / Fold change vs veh, TTC7A / RFU, TMEM135 / Fold change vs veh, TMEM135 / RFU, DEPTOR / Fold change vs veh, DEPTOR / RFU, CPM / Fold change vs veh, CPM / RFU, DNAJB6 / Fold change vs veh, DNAJB6 / RFU, CACNA2D3 / Fold change vs veh, CACNA2D3 / RFU, DTX4 / Fold change vs veh, DTX4 / RFU, TFCP2 / Fold change vs veh, TFCP2 / RFU, GMCL1 /// GMCL1P1 / Fold change vs veh, GMCL1 /// GMCL1P1 / RFU, AEBP2 / Fold change vs veh, AEBP2 / RFU, SNHG1 /// SNORD22 /// SNORD25 /// SNORD26 /// SNORD27 /// SNORD28 /// SNORD29 /// SNORD31 / Fold change vs veh, SNHG1 /// SNORD22 /// SNORD25 /// SNORD26 /// SNORD27 /// SNORD28 /// SNORD29 /// SNORD31 / Fold change (Aza/veh), C12orf56 (ProbeSet 11735607_a_at) / Fold change (ACY-1035/veh), C12orf56 (ProbeSet 11735607_a_at) / Fold change (Aza/veh), FGFR1OP (ProbeSet 11751329_s_at) / Fold change (ACY-1035/veh), FGFR1OP (ProbeSet 11751329_s_at) / Fold change (Aza/veh), VPS36 (ProbeSet 11739960_a_at) / Fold change (ACY-1035/veh), VPS36 (ProbeSet 11739960_a_at) / RFU SYPL1 (11715823_x_at) / Fold change /veh SYPL1 (11715823_x_at) / RFU IGFBP7 (11715501_s_at) / Fold change /veh IGFBP7 (11715501_s_at) / RFU REEP3 (11722064_at) / Fold change /veh REEP3 (11722064_at) / RFU IGLL1 (11728026_x_at) / Fold change /veh IGLL1 (11728026_x_at): dose or concentration left out as unconfirmed
Settings: ProbeSet 11732306_x_at; LIST D

With `Nc1ncn([C@@H]2O[C@H](CO)[C@@H](O)[C@H]2O)c(=O)n1` [azacitidine] the “RFU, CREB1” value was 273.21 RFU.
